Entries after “also recorded” stand apart in the source; their conditions may differ.
What was measured:
[1] = system: coculture of keratinocytes and melanocytes; test: Inhibitory activity on melanin synthesis (constitutive melanogenesis), ratio of thiouracil incorporation to leucine incorporation; format: cell-based; conditions: for efficacy in inhibiting melanogenesis compared with known depigmenting compounds: conclusion in words from the coculture test; for IC50: read-out: IC50 (concentration for which 50% of the melanin synthesis is inhibited)
Description: (§1) The modulatory effect of each compound on melanogenesis was measured according to the method described in FR-A-2734825 and also in the article by R. Schmidt, P. Krien and M. Regnier, Anal. Bichem., 235(2), 113-18,1996. This test is carried out on a coculture of keratinocytes and melanocytes.
(§2) For the compounds tested, the following were determined: • the cytotoxicity, by estimating leucine incorporation, • the inhibitory activity on melanin synthesis, by estimating the ratio of thiouracil incorporation to leucine incorporation, relative to 100% of the control (the control corresponds to the test carried out without test compound). The IC50 values (concentration for which 50% of the melanin synthesis is inhibited) were determined.
(§3) The test was also carried out with arbutin, niacinamide and kojic acid, which are known depigmenting compounds.

[2] = system: coculture of keratinocytes and melanocytes; test: Cytotoxicity on coculture, estimated by leucine incorporation; format: cell-based
Description: as §1, §2, §3

[3] = ratio of thiouracil to leucine incorporation, relative to 100% of the control, coculture of keratinocytes and melanocytes

Row | IC50 [1, 3] [µM] | IC50 (concentration for which 50% of the melanin synthesis is inhibited) [1, 3] | SMILES | efficacy in inhibiting melanogenesis compared with known depigmenting compounds [1] | Cytotoxicity on coculture [2]
1 | 128 | – | O=C(NCC(O)CO)c1ccc[nH]c1=S (stereo not drawn) [Compound 21, N-(2,3-dihydroxypropyl)-2-thioxo-1,2-dihydropyridine-3-carboxamide] | more effective than arbutin, kojic acid and niacinamide | Non-cytotoxic
2 | 25 | – | COc1ccc(CCNC(=O)c2ccc[nH]c2=S)cc1 [Compound 16, N-[2-(4-methoxyphenyl)ethyl]-2-thioxo-1,2-dihydropyridine-3-carboxamide] | more effective than arbutin, kojic acid and niacinamide | 100 µM
3 | – | Not attained | NC(=O)c1cccnc1 [Niacinamide, reference compound] | – | Non-cytotoxic
4 | 29 | – | CCN(CC)C(=O)c1ccc[nH]c1=S [Compound 27, N,N-diethyl 2-mercaptonicotinamide] | more effective than arbutin, kojic acid and niacinamide | Non-cytotoxic
5 | > 500 | – | OC[C@H]1O[C@@H](Oc2ccc(O)cc2)[C@H](O)[C@@H](O)[C@@H]1O [Arbutin, reference compound] | – | Non-cytotoxic
6 | > 500 | – | O=c1cc(CO)occ1O [Kojic acid, reference compound] | – | 100 µM
7 | 32 | – | CCCCCNC(=O)c1ccc[nH]c1=S [Compound 7, N-pentyl-2-thioxo-1,2-dihydropyridine-3-carboxamide] | more effective than arbutin, kojic acid and niacinamide | Non-cytotoxic
8 | 4.9 | – | CCNC(=O)c1ccc[nH]c1=S [Compound 2, N-ethyl-2-thioxo-1,2-dihydropyridine-3-carboxamide] | more effective than arbutin, kojic acid and niacinamide; also recorded: the most effective compound | Non-cytotoxic
9 | 37 | – | O=C(NC1CCCCC1)c1ccc[nH]c1=S [Compound 12, N-cyclohexyl-2-thioxo-1,2-dihydropyridine-3-carboxamide] | more effective than arbutin, kojic acid and niacinamide | Non-cytotoxic
10 | 410 | – | O=C(NCCO)c1ccc[nH]c1=S [Compound 19, N-(2-hydroxyethyl)-2-thioxo-1,2-dihydropyridine-3-carboxamide] | more effective than arbutin, kojic acid and niacinamide | Non-cytotoxic

From patent publication US11052028B2, “Process for depigmenting keratin materials using thiopyridinone compounds” (L'OREAL, priority 2010, dated 2021)
